Measured values taken from patent US20070292403A1, “Methods of treating a neurological disorder with creatine monohydrate” (priority 2006, published 2007).

Assays:
[1] = tested on: subjects with Huntington's disease; experiment: Example 1: tolerability, safety and clinical (UHDRS) measures of creatine 8 g/day in Huntington's disease, randomized placebo-controlled; type: in vivo, human; set-up: Serum creatinine: unit: mg/dL; settings: for Serious adverse events / Study withdrawal before week 24: monohydrate
Experimental: Study design. Sixty-four subjects were enrolled at four sites. Eligible subjects were randomized to 8 g/day of creatine monohydrate or placebo by computer-generated blocked randomization with site stratification. Treatment was administered as chewable wafers twice daily for 16 weeks. A medical monitor and independent safety committee reviewed clinical data monthly. Consent, study procedures, and case report forms were approved by the institutional review board at each site. Blood samples for analysis of serum biomarkers were obtained with consent from 30 age-appropriate individuals without neurological illnesses.
Eligibility criteria. Eligible subjects were 18 years of age and older with a diagnosis of Huntington's disease confirmed by genetic testing, a total functional capacity score of ≧5, and a caregiver to witness consent and monitor compliance. Exclusion criteria included previous creatine exposure within 30 days of baseline; underlying hematological, hepatic, or renal disease; screening white blood cell count <3,800/mm^3; creatinine >2.0 mg/dL or alanine aminotransferase greater than twice the upper normal limit; or unstable medical/psychiatric illness.
(§1) Study protocol. Subjects were screened within 25 days of randomization (baseline visit). Screening included assessment of eligibility criteria, medical history, physical examination, Unified Huntington's Disease Rating Scale (UHDRS), EKG, DNA analysis, complete blood count, chemistry panel, and urinalysis. Subjects were on study drug (creatine or placebo) for 16 weeks, followed by an 8-week washout. Study visits occurred at baseline, weeks 8, 16, and 24 with telephone contacts at weeks 1, 10 and 20. Physical examination was done at screening and week 16. UHDRS scores, vital signs, adverse event assessment, and safety laboratory tests were repeated at all visits. Blood was collected for serum creatine levels and serum 8-hydroxy-2′-deoxyguanosine (8OH2′dG), a measure of oxidative injury affecting DNA. The later was analyzed in the samples from two sites. Magnetic resonance spectroscopy (MRS; STEAM; TR/TE=6000/20 milliseconds) of frontal cortex (voxel size=56 cc) and occipital cortex (voxel size=18 cc) performed at one site was analyzed for this report. Subject compliance was assessed by wafer counts.
Statistical analysis. The primary outcome measure was tolerability. […] Within 27 subjects per group, there was a 94% power to detect an absolute difference of 50% or more between the placebo group and the active treatment group assuming a 15% dropout rate. In accordance with intent to treat, all randomized subjects were included in safety and tolerability analysis. Tolerability was assessed by comparing the proportion of treatment failures in creatine and placebo groups using χ^2 test with continuity correction. As the primary interest was in detecting intolerability in the active group, a one-sided test was used (significance=0.05). This was also applied to assess adverse events and laboratory abnormalities. The laboratory score changes from screening were analyzed by repeated-measures analysis of variance (ANOVA), and the differences between visits were analyzed by paired t test. Demographic and baseline variables were summarized for each group, and comparisons made using Fischer's exact test and continuous variables were compared using t test. Changes in UHDRS motor, cognitive, behavioral, and functional component subscores were measured at baseline and weeks 8, 16, and 24 and analyzed by mixed-model ANOVA.

[2] = Example 1: serum creatine levels and brain creatine by magnetic resonance spectroscopy; type: in vivo, human; settings: for Increase in absolute creatine concentration by MRS: by week 16, 8 g/day, p<0.05, returned to baseline at week 24
Description: as §1

[3] = 8 g/day, n = 32, frequency, listed as creatine
[4] = adverse event frequency, 8 g/day, n = 32

For CN(CC(=O)O)C(=N)N [Creatine, creatine monohydrate], the Laboratory abnormalities ([1]; 8 g/day) was “mild reversible serum creatinine and alkaline phosphatase elevations”, the Tolerability ([1]; 8 g/day, chewable wafers twice daily, 16 weeks) was “well tolerated” and the “All adverse events: mild, moderate and severe, (%)” value ([1]; 8 g/day, n = 32) was 86.9%. For the same compound, the “All adverse events: mild, moderate and severe, no.” value ([1]; 8 g/day, n = 32, frequency) was 26, the Serious adverse events [1, 3] was “three” and the “Study withdrawal before week 24” value [1, 3] was “three”. The Serious adverse events ([1]; 8 g/day, n = 32, frequency) was 3, the “Study withdrawal before week 24” value ([1]; 8 g/day, n = 32, frequency) was 2 and the “Body mass index and UHDRS subscores compared with baseline” value ([1]; 8 g/day, paired t test) was “did not change with treatment”. It also gave an Apathy [1, 4] of 1, a Cough [1, 4] of 1 and a Depression [1, 4] of 4. The Dizziness [1, 4] was 1, the Dysphagia [1, 4] was 1 and the Fall [1, 4] was 3. The Hematuria [1, 4] was 1, the Increased movements [1, 4] was 1 and the Irritability [1, 4] was 3. The Lethargy [1, 4] was 2, the Vomiting [1, 4] was 1 and the Serum creatinine ([1]; creatine group by week 8, from 0.88±0.19, p<0.01, elevated at week 16, baseline at washout, in mg/dL (unit assumed)) was 1.04±0.24. For the same compound, the “Increase in absolute creatine concentration by MRS” value ([2]; frontal cortex) was 7.5%, the concentration at 16 weeks ([2]; human, serum, oral, 8 g/day, week 16, baseline 46.4 (SD=35.7), SD=259.9, read-out: Average serum creatine level) was 382 µM and the concentration at 24 weeks ([2]; human, serum, oral, at washout after 8 g/day for 16 weeks, SD=29.5, read-out: Average serum creatine level) was 51.8 µM. The “Increase in absolute creatine concentration by MRS” value ([2]; occipital cortex) was 13%.
